Experimental data taken from ChEMBL document CHEMBL1909046, “DrugMatrix in vitro pharmacology data”.
Note: in other assays of this panel Not Active means under 50% inhibition at 10 µM.

What follows are compounds tested against T1, Muscarinic acetylcholine receptor M5 (Homo sapiens, UniProt P08912). Settings: cho-k1.
T1 sequence (P08912 whole entry): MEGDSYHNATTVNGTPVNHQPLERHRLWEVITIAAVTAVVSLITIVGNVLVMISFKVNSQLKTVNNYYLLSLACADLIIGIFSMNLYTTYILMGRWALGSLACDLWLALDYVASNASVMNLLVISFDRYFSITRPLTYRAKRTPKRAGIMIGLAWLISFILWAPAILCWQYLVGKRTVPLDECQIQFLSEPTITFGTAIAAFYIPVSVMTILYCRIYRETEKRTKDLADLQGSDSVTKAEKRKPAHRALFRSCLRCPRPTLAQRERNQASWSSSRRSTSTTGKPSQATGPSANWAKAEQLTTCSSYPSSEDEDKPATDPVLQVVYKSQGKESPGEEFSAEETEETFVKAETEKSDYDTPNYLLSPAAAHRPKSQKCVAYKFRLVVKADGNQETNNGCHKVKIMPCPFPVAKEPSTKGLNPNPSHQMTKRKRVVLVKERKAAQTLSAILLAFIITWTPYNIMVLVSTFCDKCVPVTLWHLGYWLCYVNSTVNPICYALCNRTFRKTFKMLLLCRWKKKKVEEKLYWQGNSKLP
Type: cell membranes, CHO-K1, Membrane
In the case of `CCCCC(=O)N(Cc1ccc(-c2ccccc2-c2nnn[nH]2)cc1)[C@H](C(=O)O)C(C)C`, the IC50 is reported as “Not Active”.
In the case of `O=C(O)COc1ccc(C(=O)c2cccs2)c(Cl)c1Cl`, the IC50 is reported as “Not Active”.
For `C[C@@](Cc1ccc(O)c(O)c1)(NN)C(=O)O.O` [CARBIDOPA], the IC50 was “Not Active”.
In the case of `CC(C)NC[C@@H](O)COc1cccc2ccccc12` [DEXPROPRANOLOL], the IC50 is reported as “Not Active”.
In the case of `CC(C)NC[C@H](O)COc1cccc2ccccc12` [LEVOPROPRANOLOL], the IC50 is reported as “Not Active”.
With `O=C(O)CCCCC1CCSS1` (stereo not drawn) [LIPOIC ACID, ALPHA] the IC50 was “Not Active”.
For `CN(C)C(=O)C(CCN1CCC(O)(c2ccc(Cl)cc2)CC1)(c1ccccc1)c1ccccc1` [LOPERAMIDE], the IC50 was “Not Active”.
With `Clc1ccc(COC(Cn2ccnc2)c2ccc(Cl)cc2Cl)c(Cl)c1` (stereo unspecified) [MICONAZOLE] the IC50 was “Not Active”.
In the case of `Oc1ccc2c3c1O[C@H]1[C@@H](O)CC[C@@]4(O)[C@@H](C2)N(CC2CCC2)CC[C@]314` [NALBUPHINE], the IC50 is reported as “Not Active”.
With `C[C@]12C=CC(=O)C=C1CC[C@@H]1[C@@H]2C(=O)C[C@@]2(C)[C@H]1CC[C@]2(O)C(=O)CO` [PREDNISONE] the IC50 was “Not Active”.
For `COC(=O)[C@H]1[C@H]2C[C@@H]3c4[nH]c5cc(OC)ccc5c4CCN3C[C@H]2C[C@@H](OC(=O)c2cc(OC)c(OC)c(OC)c2)[C@@H]1OC` [RESERPINE], the IC50 was “Not Active”.
With `O=C(O)c1ccccc1O` [SALICYLIC ACID] the IC50 was “Not Active”.
For `C[S+]([O-])c1ccc(-c2nc(-c3ccncc3)c(-c3ccc(F)cc3)[nH]2)cc1` (stereo unspecified) [SB-203580], the IC50 was “Not Active”.
With `CC1CCC(NC(=O)N(CCCl)N=O)CC1` (stereo unspecified) [SEMUSTINE] the IC50 was “Not Active”.

What follows are compounds tested against T2, Neutrophil elastase (Homo sapiens, UniProt P08246). Settings: not given.
T2 sequence (P08246 whole entry): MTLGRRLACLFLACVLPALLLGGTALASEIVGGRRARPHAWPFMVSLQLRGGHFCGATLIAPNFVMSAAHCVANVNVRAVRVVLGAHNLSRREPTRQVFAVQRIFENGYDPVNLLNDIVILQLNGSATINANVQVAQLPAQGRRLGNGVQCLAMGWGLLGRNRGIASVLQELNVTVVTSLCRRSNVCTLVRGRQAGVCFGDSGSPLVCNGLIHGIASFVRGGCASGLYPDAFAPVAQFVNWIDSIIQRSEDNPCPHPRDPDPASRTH
Type: tissue-based
For `CCCCC(=O)N(Cc1ccc(-c2ccccc2-c2nnn[nH]2)cc1)[C@H](C(=O)O)C(C)C`, the IC50 was “Not Active”.
For `O=C(O)COc1ccc(C(=O)c2cccs2)c(Cl)c1Cl`, the IC50 was “Not Active”.
With `C[C@@](Cc1ccc(O)c(O)c1)(NN)C(=O)O.O` [CARBIDOPA] the IC50 was “Not Active”.
For `CC(C)NC[C@@H](O)COc1cccc2ccccc12` [DEXPROPRANOLOL], the IC50 was “Not Active”.
In the case of `CC(C)NC[C@H](O)COc1cccc2ccccc12` [LEVOPROPRANOLOL], the IC50 is reported as “Not Active”.
In the case of `O=C(O)CCCCC1CCSS1` (stereo not drawn) [LIPOIC ACID, ALPHA], the IC50 is reported as “Not Active”.
In the case of `CN(C)C(=O)C(CCN1CCC(O)(c2ccc(Cl)cc2)CC1)(c1ccccc1)c1ccccc1` [LOPERAMIDE], the IC50 is reported as “Not Active”.
`Clc1ccc(COC(Cn2ccnc2)c2ccc(Cl)cc2Cl)c(Cl)c1` (stereo unspecified) [MICONAZOLE] was tested, and the IC50 was “Not Active”.
`Oc1ccc2c3c1O[C@H]1[C@@H](O)CC[C@@]4(O)[C@@H](C2)N(CC2CCC2)CC[C@]314` [NALBUPHINE] was tested, and the IC50 was “Not Active”.
`C[C@]12C=CC(=O)C=C1CC[C@@H]1[C@@H]2C(=O)C[C@@]2(C)[C@H]1CC[C@]2(O)C(=O)CO` [PREDNISONE] was tested, and the IC50 was “Not Active”.
In the case of `COC(=O)[C@H]1[C@H]2C[C@@H]3c4[nH]c5cc(OC)ccc5c4CCN3C[C@H]2C[C@@H](OC(=O)c2cc(OC)c(OC)c(OC)c2)[C@@H]1OC` [RESERPINE], the IC50 is reported as “Not Active”.
With `O=C(O)c1ccccc1O` [SALICYLIC ACID] the IC50 was “Not Active”.
`C[S+]([O-])c1ccc(-c2nc(-c3ccncc3)c(-c3ccc(F)cc3)[nH]2)cc1` (stereo unspecified) [SB-203580] was tested, and the IC50 was “Not Active”.
In the case of `CC1CCC(NC(=O)N(CCCl)N=O)CC1` (stereo unspecified) [SEMUSTINE], the IC50 is reported as “Not Active”.

What follows are compounds tested against T3, Muscarinic acetylcholine receptor M2 (Homo sapiens, UniProt P08172). Settings: cho-k1.
T3 sequence (P08172 whole entry): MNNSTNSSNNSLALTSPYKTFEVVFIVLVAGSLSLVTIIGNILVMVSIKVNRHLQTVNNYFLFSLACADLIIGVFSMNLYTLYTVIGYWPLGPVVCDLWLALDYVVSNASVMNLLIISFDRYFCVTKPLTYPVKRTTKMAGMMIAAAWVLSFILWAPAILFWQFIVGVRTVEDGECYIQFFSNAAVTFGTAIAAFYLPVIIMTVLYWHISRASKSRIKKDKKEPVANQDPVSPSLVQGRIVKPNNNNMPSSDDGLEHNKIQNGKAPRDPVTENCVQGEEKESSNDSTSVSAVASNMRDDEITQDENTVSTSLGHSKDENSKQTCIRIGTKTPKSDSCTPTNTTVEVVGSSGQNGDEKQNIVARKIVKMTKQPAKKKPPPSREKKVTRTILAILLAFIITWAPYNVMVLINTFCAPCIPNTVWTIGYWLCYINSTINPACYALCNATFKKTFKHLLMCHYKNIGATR
Type: cell membranes, CHO-K1, Membrane
`CCCCC(=O)N(Cc1ccc(-c2ccccc2-c2nnn[nH]2)cc1)[C@H](C(=O)O)C(C)C` was tested, and the IC50 was “Not Active”.
With `O=C(O)COc1ccc(C(=O)c2cccs2)c(Cl)c1Cl` the IC50 was “Not Active”.
For `C[C@@](Cc1ccc(O)c(O)c1)(NN)C(=O)O.O` [CARBIDOPA], the IC50 was “Not Active”.
In the case of `CC(C)NC[C@@H](O)COc1cccc2ccccc12` [DEXPROPRANOLOL], the IC50 is reported as “Not Active”.
`CC(C)NC[C@H](O)COc1cccc2ccccc12` [LEVOPROPRANOLOL] was tested, and the IC50 was “Not Active”.
In the case of `O=C(O)CCCCC1CCSS1` (stereo not drawn) [LIPOIC ACID, ALPHA], the IC50 is reported as “Not Active”.
With `CN(C)C(=O)C(CCN1CCC(O)(c2ccc(Cl)cc2)CC1)(c1ccccc1)c1ccccc1` [LOPERAMIDE] the IC50 was “Not Active”.
With `Oc1ccc2c3c1O[C@H]1[C@@H](O)CC[C@@]4(O)[C@@H](C2)N(CC2CCC2)CC[C@]314` [NALBUPHINE] the IC50 was “Not Active”.
In the case of `C[C@]12C=CC(=O)C=C1CC[C@@H]1[C@@H]2C(=O)C[C@@]2(C)[C@H]1CC[C@]2(O)C(=O)CO` [PREDNISONE], the IC50 is reported as “Not Active”.
In the case of `COC(=O)[C@H]1[C@H]2C[C@@H]3c4[nH]c5cc(OC)ccc5c4CCN3C[C@H]2C[C@@H](OC(=O)c2cc(OC)c(OC)c(OC)c2)[C@@H]1OC` [RESERPINE], the IC50 is reported as “Not Active”.
With `O=C(O)c1ccccc1O` [SALICYLIC ACID] the IC50 was “Not Active”.
`C[S+]([O-])c1ccc(-c2nc(-c3ccncc3)c(-c3ccc(F)cc3)[nH]2)cc1` (stereo unspecified) [SB-203580] was tested, and the IC50 was “Not Active”.
With `CC1CCC(NC(=O)N(CCCl)N=O)CC1` (stereo unspecified) [SEMUSTINE] the IC50 was “Not Active”.

Same assay, conditions: read-out: IC50
In the case of `Clc1ccc(COC(Cn2ccnc2)c2ccc(Cl)cc2Cl)c(Cl)c1` (stereo unspecified) [MICONAZOLE], the IC50 is reported as 4340 nM.

Same assay, conditions: read-out: Ki
For `Clc1ccc(COC(Cn2ccnc2)c2ccc(Cl)cc2Cl)c(Cl)c1` (stereo unspecified) [MICONAZOLE], the Ki was 1540 nM.

These compounds were tested against T4, Adenosine receptor A3 (Homo sapiens, UniProt P0DMS8). Settings: cho-k1.
T4 sequence (P0DMS8 whole entry): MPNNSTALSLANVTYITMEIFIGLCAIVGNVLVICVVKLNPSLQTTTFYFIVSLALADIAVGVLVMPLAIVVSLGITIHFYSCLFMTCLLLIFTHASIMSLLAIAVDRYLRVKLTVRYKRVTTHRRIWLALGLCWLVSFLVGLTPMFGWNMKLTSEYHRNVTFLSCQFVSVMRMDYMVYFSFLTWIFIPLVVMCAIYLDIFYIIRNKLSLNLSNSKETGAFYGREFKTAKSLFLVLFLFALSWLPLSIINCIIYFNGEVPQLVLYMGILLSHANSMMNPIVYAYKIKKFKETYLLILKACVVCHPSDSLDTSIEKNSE
Type: cell membranes, CHO-K1, Membrane
For `CCCCC(=O)N(Cc1ccc(-c2ccccc2-c2nnn[nH]2)cc1)[C@H](C(=O)O)C(C)C`, the IC50 was “Not Active”.
In the case of `O=C(O)COc1ccc(C(=O)c2cccs2)c(Cl)c1Cl`, the IC50 is reported as “Not Active”.
In the case of `C[C@@](Cc1ccc(O)c(O)c1)(NN)C(=O)O.O` [CARBIDOPA], the IC50 is reported as “Not Active”.
`CC(C)NC[C@@H](O)COc1cccc2ccccc12` [DEXPROPRANOLOL] was tested, and the IC50 was “Not Active”.
For `CC(C)NC[C@H](O)COc1cccc2ccccc12` [LEVOPROPRANOLOL], the IC50 was “Not Active”.
In the case of `O=C(O)CCCCC1CCSS1` (stereo not drawn) [LIPOIC ACID, ALPHA], the IC50 is reported as “Not Active”.
In the case of `CN(C)C(=O)C(CCN1CCC(O)(c2ccc(Cl)cc2)CC1)(c1ccccc1)c1ccccc1` [LOPERAMIDE], the IC50 is reported as “Not Active”.
In the case of `Oc1ccc2c3c1O[C@H]1[C@@H](O)CC[C@@]4(O)[C@@H](C2)N(CC2CCC2)CC[C@]314` [NALBUPHINE], the IC50 is reported as “Not Active”.
`C[C@]12C=CC(=O)C=C1CC[C@@H]1[C@@H]2C(=O)C[C@@]2(C)[C@H]1CC[C@]2(O)C(=O)CO` [PREDNISONE] was tested, and the IC50 was “Not Active”.
`COC(=O)[C@H]1[C@H]2C[C@@H]3c4[nH]c5cc(OC)ccc5c4CCN3C[C@H]2C[C@@H](OC(=O)c2cc(OC)c(OC)c(OC)c2)[C@@H]1OC` [RESERPINE] was tested, and the IC50 was “Not Active”.
For `O=C(O)c1ccccc1O` [SALICYLIC ACID], the IC50 was “Not Active”.
`C[S+]([O-])c1ccc(-c2nc(-c3ccncc3)c(-c3ccc(F)cc3)[nH]2)cc1` (stereo unspecified) [SB-203580] was tested, and the IC50 was “Not Active”.
With `CC1CCC(NC(=O)N(CCCl)N=O)CC1` (stereo unspecified) [SEMUSTINE] the IC50 was “Not Active”.
